Measurements as given in publication PMC12498416, “Design of Tau Aggregation Inhibitors Using Iterative Machine Learning and a Polymorph-Specific Brain-Seeded Fibril Amplification Assay” (Journal of the American Chemical Society, 2025).

Columns and labels:
[1] = target: T1, K12 tau (first-generation AD-brain-seeded K12 fibrils) (Homo sapiens, UniProt P10636, C639A); assay: ThT seeded aggregation kinetics ([…]/t1/[…]); assay type: biochemical; conditions: read-out: KIC50; 5 μM K12 monomer seeded with 50 nM first-generation AD-derived K12 seeds; 250 mM Na3citrate, 10 mM HEPES pH 7.4; 1% DMSO; quiescent; inhibition of fibril formation
T1 construct: gene MAPT; 3R fragment; E. coli; amyloid fibrils seeded with Alzheimer's disease brain homogenate, heparin-free

[2] = target: T1, K12 tau (first-generation AD-brain-seeded K12 fibrils); assay: fluorescence polarization with K12 fibrils; conditions: 10 μM compound; AD-seeded K12 fibrils (monomer equivalents); 250 mM Na3citrate, 10 mM HEPES pH 7.4; 1% DMSO; room temperature; one-step binding fit

T1 sequence (P10636 561-717 C639A): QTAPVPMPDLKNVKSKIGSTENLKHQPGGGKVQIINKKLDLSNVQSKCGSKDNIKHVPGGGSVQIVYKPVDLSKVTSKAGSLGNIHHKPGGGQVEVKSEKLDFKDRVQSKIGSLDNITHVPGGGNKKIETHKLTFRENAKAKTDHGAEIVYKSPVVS

IC50 [1] [nM]	Kd [2] [nM]	SMILES
2600 ± 500	1580 ± 150	Cc1noc(C2CCN(C(=O)CNC(=O)c3ccccc3)C2)n1 (stereo not shown) [I1.21]
7400 ± 5000	740 ± 280	Cc1noc(C2CCN(C(=O)CCCc3ccccc3)CC2)n1 [I1.51]
